# According to patent US6358885B1, “Substituted phenylheterocyclic herbicides” (Mississippi State University, priority 1992, dated 2002):
# Experiments:
# [1] = system: umbrella sedge; experiment: Test C flood test plant response rating 0 to 100; type: in vivo, Cyperus difformis
# Method in brief: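 Compounds in non-phytotoxic solvent applied preemergence to sandy loam one day after planting, postemergence at the 1–4 leaf stage, or to ~2.5 cm floodwater over silt loam.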
# [2] = system: sugar beet; experiment: Test C preemergence/postemergence greenhouse plant response rating 0 to 100; type: in vivo, Beta vulgaris
# Method in brief: (§1)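 Compounds in non-phytotoxic solvent went onto sandy loam before emergence (seeded one day earlier) or onto plants at the one-to-four leaf stage. Duck salad was treated via flood water (~2.5 cm, maintained) over silt loam.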
# [3] = system: wild buckwheat; experiment: Test B preemergence/postemergence greenhouse plant response rating 0 to 10; type: in vivo, Polygonum convolvulus; settings: 0 to 10 scale
# Method in brief: (§2)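 Planted seeds are treated preemergence with compound dissolved in a non-phytotoxic solvent, while postemergence applications go onto plants of two to eighteen cm. Plants stay in the greenhouse twelve to sixteen days and are then rated visually relative to controls.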
# [4] = system: velvetleaf; experiment: as above; type: in vivo, Abutilon theophrasti; settings: 0 to 10 scale
# Method in brief: as §2
# [5] = system: rice; experiment: as above; type: in vivo, Oryza sativa; settings: 0 to 10 scale
# Method in brief: as §2
# [6] = system: velvetleaf; experiment: Test C preemergence/postemergence greenhouse plant response rating 0 to 100; type: in vivo, Abutilon theophrasti
# Method in brief: as §1
# [7] = system: soybean; experiment: Test B preemergence/postemergence greenhouse plant response rating 0 to 10; type: in vivo, Glycine max; settings: 0 to 10 scale
# Method in brief: as §2
# [8] = system: lambsquarters; experiment: as above; type: in vivo, Chenopodium album; settings: 0 to 10 scale
# Method in brief: as §2
# [9] = system: lambsquarters; experiment: Test C preemergence/postemergence greenhouse plant response rating 0 to 100; type: in vivo, Chenopodium album; settings: POSTEMERGENCE
# Method in brief: as §1
# [10] = system: purple nutsedge; experiment: Test B preemergence/postemergence greenhouse plant response rating 0 to 10; type: in vivo, Cyperus rotundus; settings: 0 to 10 scale
# Method in brief: as §2
# [11] = system: sorghum; experiment: Test C preemergence/postemergence greenhouse plant response rating 0 to 100; type: in vivo, Sorghum bicolor
# Method in brief: as §1
# [12] = system: soybean; experiment: as above; type: in vivo, Glycine max
# Method in brief: as §1
# [13] = system: barley; experiment: as above; type: in vivo, Hordeum vulgare; settings: for Plant response rating Barley Igri: 62 g/ha, 0 to 100 scale
# Method in brief: as §1
# [14] = system: rape; experiment: as above; type: in vivo, Brassica napus; settings: for Plant response rating, Rape: 62 g/ha, 0 to 100 scale
# Method in brief: as §1
# [15] = system: cheatgrass; experiment: Test B preemergence/postemergence greenhouse plant response rating 0 to 10; type: in vivo, Bromus secalinus; settings: 0 to 10 scale
# Method in brief: as §2
# [16] = system: morningglory; experiment: Test C preemergence/postemergence greenhouse plant response rating 0 to 100; type: in vivo, Ipomoea hederacea; settings: for Plant response rating, Morningglory: 62 g/ha, 0 to 100 scale
# Method in brief: as §1
# [17] = system: cotton; experiment: Test B preemergence/postemergence greenhouse plant response rating 0 to 10; type: in vivo, Gossypium hirsutum; settings: 0 to 10 scale
# Method in brief: as §2
# [18] = system: corn; experiment: Test C preemergence/postemergence greenhouse plant response rating 0 to 100; type: in vivo, Zea mays; settings: for Plant response rating, Corn: 62 g/ha, 0 to 100 scale
# Method in brief: as §1
# [19] = POSTEMERGENCE, 62 g/ha, 0 to 100 scale
structure (smiles),measurement,setting,value
CC(C)Oc1cc(-c2nn3c(c2Br)CCCC3)c(F)cc1Cl [Compound 38],"Plant response rating (0 to 100), Umbrella sedge","[1]; POSTEMERGENCE section, flood test, Rate 1 g/ha",0
same,"Plant response rating (0 to 100), Umbrella sedge","[1]; POSTEMERGENCE section, flood test, Rate 4 g/ha",0
same,"Plant response rating (0 to 100), Umbrella sedge","[1]; Rate 16 g/ha, under POSTEMERGENCE head (flood test species)",20
same,Plant response rating Umbrella sedge,"[1]; flood test species listed under POSTEMERGENCE, 62 g/ha, 0 to 100 scale",50
same,"Plant response rating, Sugar beet",[2]; [19],100
same,"Plant response rating (0 to 100), Sugar beet","[2]; POSTEMERGENCE, Rate 1 g/ha",20
same,"Plant response rating (0 to 100), Sugar beet","[2]; POSTEMERGENCE, Rate 4 g/ha",70
same,"Plant response rating (0 to 100), Sugar beet","[2]; PREEMERGENCE, Rate 1 g/ha",0
same,"Plant response rating (0 to 100), Sugar beet","[2]; PREEMERGENCE, Rate 4 g/ha",0
same,"Plant response rating (0 to 100), Sugar beet","[2]; Rate 16 g/ha, POSTEMERGENCE",100
same,"Plant response rating (0 to 100), Sugar beet","[2]; Rate 16 g/ha, PREEMERGENCE",30
same,"Plant response rating, Wild buckwheat","[3]; POSTEMERGENCE, Rate 50 g/ha",10
same,"Plant response rating, Wild buckwheat","[3]; PREEMERGENCE, Rate 50 g/ha",8
same,"Plant response rating, Wild buckwheat","[3]; Rate 200 g/ha, POSTEMERGENCE",10
same,"Plant response rating, Wild buckwheat","[3]; Rate 200 g/ha, PREEMERGENCE",10
same,"Plant response rating, Velvetleaf","[4]; POSTEMERGENCE, Rate 50 g/ha",6
same,"Plant response rating, Velvetleaf","[4]; PREEMERGENCE, Rate 50 g/ha",0
same,"Plant response rating, Velvetleaf","[4]; Rate 200 g/ha, POSTEMERGENCE",10
same,"Plant response rating, Velvetleaf","[4]; Rate 200 g/ha, PREEMERGENCE",7
same,"Plant response rating, Rice","[5]; POSTEMERGENCE, Rate 50 g/ha",5
same,"Plant response rating, Rice","[5]; PREEMERGENCE, Rate 50 g/ha",0
same,"Plant response rating, Rice","[5]; Rate 200 g/ha, POSTEMERGENCE",6
same,"Plant response rating, Rice","[5]; Rate 200 g/ha, PREEMERGENCE",2
same,"Plant response rating, Velvetleaf",[6]; [19],90
same,"Plant response rating (0 to 100), Velvetleaf","[6]; POSTEMERGENCE, Rate 1 g/ha",10
same,"Plant response rating (0 to 100), Velvetleaf","[6]; POSTEMERGENCE, Rate 4 g/ha",10
same,"Plant response rating (0 to 100), Velvetleaf","[6]; PREEMERGENCE, Rate 1 g/ha",0
same,"Plant response rating (0 to 100), Velvetleaf","[6]; PREEMERGENCE, Rate 4 g/ha",20
same,"Plant response rating (0 to 100), Velvetleaf","[6]; Rate 16 g/ha, POSTEMERGENCE",80
same,"Plant response rating (0 to 100), Velvetleaf","[6]; Rate 16 g/ha, PREEMERGENCE",100
same,"Plant response rating, Soybean","[7]; POSTEMERGENCE, Rate 50 g/ha",5
same,"Plant response rating, Soybean","[7]; PREEMERGENCE, Rate 50 g/ha",0
same,"Plant response rating, Soybean","[7]; Rate 200 g/ha, POSTEMERGENCE",7
same,"Plant response rating, Soybean","[7]; Rate 200 g/ha, PREEMERGENCE",4
same,"Plant response rating, Lambsquarter","[8]; POSTEMERGENCE, Rate 50 g/ha",10
same,"Plant response rating, Lambsquarter","[8]; PREEMERGENCE, Rate 50 g/ha",10
same,"Plant response rating, Lambsquarter","[8]; Rate 200 g/ha, POSTEMERGENCE",10
same,"Plant response rating, Lambsquarter","[8]; Rate 200 g/ha, PREEMERGENCE",10
same,Plant response rating Lambsquarters,"[9]; 62 g/ha, 0 to 100 scale",70
same,"Plant response rating (0 to 100), Lambsquarters",[9]; Rate 1 g/ha,60
same,"Plant response rating (0 to 100), Lambsquarters",[9]; Rate 4 g/ha,60
same,"Plant response rating (0 to 100), Lambsquarters",[9]; Rate 16 g/ha,70
same,"Plant response rating, Nutsedge","[10]; POSTEMERGENCE, Rate 50 g/ha",3
same,"Plant response rating, Nutsedge","[10]; PREEMERGENCE, Rate 50 g/ha",0
same,"Plant response rating, Nutsedge","[10]; Rate 200 g/ha, POSTEMERGENCE",4
same,"Plant response rating, Nutsedge","[10]; Rate 200 g/ha, PREEMERGENCE",0
same,"Plant response rating, Sorghum",[11]; [19],70
same,"Plant response rating (0 to 100), Sorghum","[11]; POSTEMERGENCE, Rate 1 g/ha",20
same,"Plant response rating (0 to 100), Sorghum","[11]; POSTEMERGENCE, Rate 4 g/ha",30
same,"Plant response rating (0 to 100), Sorghum","[11]; PREEMERGENCE, Rate 1 g/ha",0
same,"Plant response rating (0 to 100), Sorghum","[11]; PREEMERGENCE, Rate 4 g/ha",0
same,"Plant response rating (0 to 100), Sorghum","[11]; Rate 16 g/ha, POSTEMERGENCE",60
same,"Plant response rating (0 to 100), Sorghum","[11]; Rate 16 g/ha, PREEMERGENCE",10
same,"Plant response rating, Soybean",[12]; [19],60
same,"Plant response rating (0 to 100), Soybean","[12]; POSTEMERGENCE, Rate 1 g/ha",20
same,"Plant response rating (0 to 100), Soybean","[12]; POSTEMERGENCE, Rate 4 g/ha",20
same,"Plant response rating (0 to 100), Soybean","[12]; PREEMERGENCE, Rate 1 g/ha",0
same,"Plant response rating (0 to 100), Soybean","[12]; PREEMERGENCE, Rate 4 g/ha",0
same,"Plant response rating (0 to 100), Soybean","[12]; Rate 16 g/ha, POSTEMERGENCE",40
same,"Plant response rating (0 to 100), Soybean","[12]; Rate 16 g/ha, PREEMERGENCE",0
same,Plant response rating Barley Igri,[13]; POSTEMERGENCE,50
same,"Plant response rating (0 to 100), Barley Igri","[13]; POSTEMERGENCE, Rate 1 g/ha",10
same,Plant response rating Barley Igri,[13]; PREEMERGENCE,0
same,"Plant response rating (0 to 100), Barley Igri","[13]; PREEMERGENCE, Rate 1 g/ha",0
same,"Plant response rating (0 to 100), Barley Igri","[13]; PREEMERGENCE, Rate 4 g/ha",0
same,"Plant response rating (0 to 100), Barley Igri","[13]; Rate 4 g/ha, POSTEMERGENCE",30
same,"Plant response rating (0 to 100), Barley Igri","[13]; Rate 16 g/ha, POSTEMERGENCE",40
same,"Plant response rating (0 to 100), Barley Igri","[13]; Rate 16 g/ha, PREEMERGENCE",0
same,"Plant response rating, Rape",[14]; POSTEMERGENCE,80
same,"Plant response rating (0 to 100), Rape","[14]; POSTEMERGENCE, Rate 1 g/ha",20
same,"Plant response rating (0 to 100), Rape","[14]; POSTEMERGENCE, Rate 4 g/ha",30
same,"Plant response rating, Rape",[14]; PREEMERGENCE,30
same,"Plant response rating (0 to 100), Rape","[14]; PREEMERGENCE, Rate 1 g/ha",0
same,"Plant response rating (0 to 100), Rape","[14]; PREEMERGENCE, Rate 4 g/ha",10
same,"Plant response rating (0 to 100), Rape","[14]; Rate 16 g/ha, POSTEMERGENCE",40
same,"Plant response rating (0 to 100), Rape","[14]; Rate 16 g/ha, PREEMERGENCE",20
same,"Plant response rating, Cheatgrass","[15]; POSTEMERGENCE, Rate 50 g/ha",4
same,"Plant response rating, Cheatgrass","[15]; POSTEMERGENCE, Rate 200 g/ha",5
same,"Plant response rating, Cheatgrass","[15]; PREEMERGENCE, Rate 50 g/ha",0
same,"Plant response rating, Cheatgrass","[15]; Rate 200 g/ha, PREEMERGENCE",3
same,"Plant response rating, Morningglory",[16]; POSTEMERGENCE,95
same,"Plant response rating (0 to 100), Morningglory","[16]; POSTEMERGENCE, Rate 1 g/ha",20
same,"Plant response rating (0 to 100), Morningglory","[16]; POSTEMERGENCE, Rate 4 g/ha",30
same,"Plant response rating, Morningglory",[16]; PREEMERGENCE,20
same,"Plant response rating (0 to 100), Morningglory","[16]; PREEMERGENCE, Rate 1 g/ha",0
same,"Plant response rating (0 to 100), Morningglory","[16]; PREEMERGENCE, Rate 4 g/ha",0
same,"Plant response rating (0 to 100), Morningglory","[16]; Rate 16 g/ha, POSTEMERGENCE",95
same,"Plant response rating (0 to 100), Morningglory","[16]; Rate 16 g/ha, PREEMERGENCE",0
same,"Plant response rating, Cotton","[17]; POSTEMERGENCE, Rate 50 g/ha",9
same,"Plant response rating, Cotton","[17]; POSTEMERGENCE, Rate 200 g/ha",10
same,"Plant response rating, Cotton","[17]; PREEMERGENCE, Rate 50 g/ha",0
same,"Plant response rating, Cotton","[17]; Rate 200 g/ha, PREEMERGENCE",9
same,"Plant response rating, Corn",[18]; POSTEMERGENCE,50
same,"Plant response rating (0 to 100), Corn","[18]; POSTEMERGENCE, Rate 1 g/ha",10
same,"Plant response rating, Corn",[18]; PREEMERGENCE,0
same,"Plant response rating (0 to 100), Corn","[18]; PREEMERGENCE, Rate 1 g/ha",0
same,"Plant response rating (0 to 100), Corn","[18]; PREEMERGENCE, Rate 4 g/ha",0
same,"Plant response rating (0 to 100), Corn","[18]; Rate 4 g/ha, POSTEMERGENCE",20
same,"Plant response rating (0 to 100), Corn","[18]; Rate 16 g/ha, POSTEMERGENCE",40
same,"Plant response rating (0 to 100), Corn","[18]; Rate 16 g/ha, PREEMERGENCE",0
